Reference: patent publication US8404683B2, “Inhibitors of the interaction between MDM2 and P53” (Janssen Pharmaceutical N.V., priority 2004, dated 2013)

What follows are compounds tested on U87MG cells (assay: Proliferation assay (MTT-based) on U87MG tumour cells). Conditions: Homo sapiens, U-87 MG, 96 h, 4 days of incubation, negative log value of the IC50-value, read-out: cell proliferation pIC50 (converted).
Description: U87MG cells are human glioblastoma cells with wild type p53. In this cell line MDM2 tightly controls p53 expression.
Cellular activity of the compounds of formula (I) was determined on U87MG tumour cells using a colorimetric assay for cell toxicity or survival (see example C.2).
All compounds tested were dissolved in DMSO and further dilutions were made in culture medium. Final DMSO concentrations never exceeded 0.1% (v/v) in cell proliferation assays. Controls contained U87MG cells and DMSO without compound and blanks contained DMSO but no cells.
U87MG cells were seeded in 96-well cell culture plates at 3000 cells/well/100 μl. 24 hours later, medium was changed and compound and/or solvent were added to a final volume of 200 μl. Following 4 days of incubation, medium was replaced by 200 μl fresh medium and cell growth was assessed using a MTT-based assay. Therefore, 25 μl of the MTT solution (0.5% MTT research grade from Serva in phosphate-buffered saline) was added to each well and the cells were further incubated for 2 hours at 37° C. The medium was then carefully aspirated and the blue MTT-formazan product was dissolved by adding to each well 25 μl 0.1 M glycin and 100 μl DMSO. The plates were shaken for another 10 min on a micro plate shaker before reading absorbance at 540 nm by a Biorad micro plate reader.
Within an experiment, the results for each experimental condition are the mean of 3 replicate wells. For initial screening purposes, compounds were tested at a single fixed concentration of 10^−5 M. For active compounds, the experiments were repeated to establish full concentration-response curves. For each experiment, controls (containing no drug) and a blank incubation (containing no cells or drugs) were run in parallel. The blank value was subtracted from all control and sample values. For each sample, the mean value for cell growth (in absorbance units) was expressed as a percentage of the mean value for cell growth of the control. When appropriate, IC50-values (concentration of the drug, needed to reduce cell growth to 50% of the control) were computed using probit analysis for graded data (Finney, D. J., Probit Analyses, 2nd Ed. Chapter 10, Graded Responses, Cambridge University Press, Cambridge 1962). Herein the effects of test compounds are expressed as pIC50 (the negative log value of the IC50-value) (see table F-2).

IC50 [µM]	Compound
3.16	O=C(NCCNCc1cc(Nc2ccc(NCCc3c[nH]c4ccccc34)cc2)ccn1)OCc1ccccc1 [Compound 92]
> 10	NCCNCc1cc(Nc2ccc(NCCc3c[nH]c4ccccc34)cc2)ccn1 [Compound 93]
7.94	c1ccc2c(CCNc3ccc(Nc4ccnc(CNCCN5CCNCC5)c4)cc3)c[nH]c2c1 [Compound 95]
> 10	COC(=O)CCNCc1cc(Nc2ccc(NCCc3c[nH]c4ccccc34)cc2)ccn1 [Compound 96]
> 10	O=C(O)CCNCc1cc(Nc2ccc(NCCc3c[nH]c4ccccc34)cc2)ccn1 [Compound 97]
3.98	COC(=O)COCc1cc(Nc2ccc(NCCc3c[nH]c4ccccc34)cc2)ccn1 [Compound 98]
2.51	OCCOCc1cc(Nc2ccc(NCCc3c[nH]c4ccccc34)cc2)ccn1 [Compound 99]
3.98	CC(NCCCCO)c1cc(Nc2ccc(NCCc3c[nH]c4ccccc34)cc2)ccn1 (stereo not drawn) [Compound 100]
2.51	c1ccc(CC(CNc2ccc(Nc3ccncc3)cc2)c2c[nH]c3ccccc23)cc1 (stereo not drawn) [Compound 101]
> 10	CC(C)(C)OC(=O)N(CCc1cn(C(=O)OC(C)(C)C)c2ccccc12)c1ccc(Nc2ccnc(Cl)c2)cc1 [Compound 102]
3.98	Clc1cc(Nc2ccc(NCCc3c[nH]c4ccccc34)cc2)ccn1 [Compound 103]
3.16	CC(O)c1cc(Nc2ccc(NCCc3c[nH]c4ccccc34)cc2)ccn1 (stereo not drawn) [Compound 104]
7.94	CC(=O)c1cc(Nc2ccc(NCCc3c[nH]c4ccccc34)cc2)ccn1 [Compound 105]
1.58	Cc1noc(-c2cc(Nc3ccc(NCCc4c[nH]c5ccccc45)cc3)ccn2)n1 [Compound 106]
> 10	COC(=O)c1cc(Nc2ccc(NCCc3c[nH]c4ccccc34)cc2)cc(C(=O)OC)n1 [Compound 109]
0.01	OC1CCc2c(Nc3ccc(NCCc4c[nH]c5ccccc45)cc3)ccnc21 (stereo not drawn) [Compound 110]
> 10	O=C(C(Cc1c[nH]c2ccccc12)Nc1ccc(Nc2ccncc2)cc1)N1CCN(CCO)CC1 (stereo not drawn) [Compound 114]
> 10	O=C(C(Cc1c[nH]c2ccccc12)Nc1ccc(Nc2ccncc2)cc1)N1CCN(CCOCCO)CC1 (stereo not drawn) [Compound 116]
> 10	O=C(NCCCCCO)C(Cc1c[nH]c2ccccc12)Nc1ccc(Nc2ccncc2)cc1 (stereo not drawn) [Compound 118]
> 10	c1ccc2c(CCNc3ccc(Nc4ccnnc4)cc3)c[nH]c2c1 [Compound 119]
5.01	c1ccc2c(CNc3ccc(NCCc4c[nH]c5ccccc45)cc3)ccnc2c1 [Compound 120]
> 10	c1cncc(CNc2ccc(NCCc3c[nH]c4ccccc34)cc2)c1 [Compound 121]
5.01	OCc1cnccc1Nc1ccc(NCCc2c[nH]c3ccccc23)cc1 [Compound 123]
5.01	COC(=O)c1cnccc1Nc1ccc(NCCc2c[nH]c3ccccc23)cc1 [Compound 124]

IC50 [µM]	Compound
3.98	Cc1cnccc1Cc1cnccc1Nc1ccc(NCCc2c[nH]c3ccccc23)cc1 [Compound 125]
> 10	CCOC(=O)/C=C/c1cnccc1Nc1ccc(NCCc2c[nH]c3ccccc23)cc1 [Compound 126]
7.94	CCC(O)c1cnccc1Nc1ccc(NCCc2c[nH]c3ccccc23)cc1 (stereo not drawn) [Compound 127]
3.16	CCC(O)(CC)c1cc(Nc2ccc(NCCc3c[nH]c4ccccc34)cc2)ccn1 [Compound 128]
2	CS(=O)(=O)NCc1cc(Nc2ccc(NCCc3c[nH]c4ccccc34)cc2)ccn1 [Compound 129]
1.58	O=C(NCc1cc(Nc2ccc(NCCc3c[nH]c4ccccc34)cc2)ccn1)C1CC1 [Compound 130]
2.51	O=C(CCc1ccccc1)NCc1cc(Nc2ccc(NCCc3c[nH]c4ccccc34)cc2)ccn1 [Compound 131]
> 10	CCC(=O)NCc1cc(Nc2ccc(NCCc3c[nH]c4ccccc34)cc2)ccn1 [Compound 132]
1.26	CCOCc1cc(Nc2ccc(NCCc3c[nH]c4ccccc34)cc2)ccn1 [Compound 134]
1	OCc1cc(Nc2ccc(NCCc3c[nH]c4ccccc34)cc2)cc(CO)n1 [Compound 135]
2	OC(c1cc(Nc2ccc(NCCc3c[nH]c4ccccc34)cc2)ccn1)C1CC1 (stereo not drawn) [Compound 136]
3.16	CC(C)C(O)c1cc(Nc2ccc(NCCc3c[nH]c4ccccc34)cc2)ccn1 (stereo not drawn) [Compound 137]
1.58	CC(C)(C)C(O)c1cc(Nc2ccc(NCCc3c[nH]c4ccccc34)cc2)ccn1 (stereo not drawn) [Compound 138]
2	CCOc1cc(Nc2ccnc(C(C)(C)O)c2)ccc1NCCc1c[nH]c2cc(OC)ccc12 [Compound 139]
2.51	CC(NCc1ccccc1)c1cc(Nc2ccc(NCCc3c[nH]c4ccccc34)cc2)ccn1 (stereo not drawn) [Compound 140]
3.98	CC(N)c1cc(Nc2ccc(NCCc3c[nH]c4ccccc34)cc2)ccn1 (stereo not drawn) [Compound 141]
3.16	CNC(C)c1cc(Nc2ccc(NCCc3c[nH]c4ccccc34)cc2)ccn1 (stereo not drawn) [Compound 142]
3.16	CCNC(C)c1cc(Nc2ccc(NCCc3c[nH]c4ccccc34)cc2)ccn1 (stereo not drawn) [Compound 143]
3.16	CC(NCCN1CCOCC1)c1cc(Nc2ccc(NCCc3c[nH]c4ccccc34)cc2)ccn1 (stereo not drawn) [Compound 144]
2.51	CC(NCCc1ccccc1)c1cc(Nc2ccc(NCCc3c[nH]c4ccccc34)cc2)ccn1 (stereo not drawn) [Compound 145]
7.94	COC(=O)CCNC(C)c1cc(Nc2ccc(NCCc3c[nH]c4ccccc34)cc2)ccn1 (stereo not drawn) [Compound 146]
5.01	CC(NCCO)c1cc(Nc2ccc(NCCc3c[nH]c4ccccc34)cc2)ccn1 (stereo not drawn) [Compound 147]
3.16	CC(NCCCc1ccccc1)c1cc(Nc2ccc(NCCc3c[nH]c4ccccc34)cc2)ccn1 (stereo not drawn) [Compound 148]
2	CCOC(C)c1cc(Nc2ccc(NCCc3c[nH]c4ccccc34)cc2)ccn1 (stereo not drawn) [Compound 149]

IC50 [µM]	Compound
3.16	COC(C)c1cc(Nc2ccc(NCCc3c[nH]c4ccccc34)cc2)ccn1 (stereo not drawn) [Compound 150]
> 10	CC(=O)OCc1cc(Nc2ccc(NCCc3c[nH]c4ccccc34)cc2)ccn1 [Compound 151]
10	OCCNCc1cc(Nc2ccc(NCCc3c[nH]c4ccccc34)cc2)ccn1 [Compound 152]
2.51	c1ccc2c(CCNc3ccc(Nc4ccnc(CNCCN5CCOCC5)c4)cc3)c[nH]c2c1 [Compound 153]
3.16	CNCc1cc(Nc2ccc(NCCc3c[nH]c4ccccc34)cc2)ccn1 [Compound 154]
2	CCNCc1cc(Nc2ccc(NCCc3c[nH]c4ccccc34)cc2)ccn1 [Compound 155]
3.16	OCCCNCc1cc(Nc2ccc(NCCc3c[nH]c4ccccc34)cc2)ccn1 [Compound 156]
1.58	N#CCNCc1cc(Nc2ccc(NCCc3c[nH]c4ccccc34)cc2)ccn1 [Compound 157]
> 10	CN(C)Cc1cc(Nc2ccc(NCCc3c[nH]c4ccccc34)cc2)ccn1 [Compound 158]
3.16	c1ccc2c(CCNc3ccc(Nc4ccnc(CN5CCOCC5)c4)cc3)c[nH]c2c1 [Compound 159]
0.398	CN1CCN(Cc2cc(Nc3ccc(NCCc4c[nH]c5ccccc45)cc3)ccn2)CC1 [Compound 160]
1	CCN(CC)Cc1cc(Nc2ccc(NCCc3c[nH]c4ccccc34)cc2)ccn1 [Compound 161]
3.16	N#CCCNCc1cc(Nc2ccc(NCCc3c[nH]c4ccccc34)cc2)ccn1 [Compound 162]
3.16	c1ccc(CCNCc2cc(Nc3ccc(NCCc4c[nH]c5ccccc45)cc3)ccn2)cc1 [Compound 163]
2.51	c1ccc(CCCNCc2cc(Nc3ccc(NCCc4c[nH]c5ccccc45)cc3)ccn2)cc1 [Compound 164]
5.01	OCCCCNCc1cc(Nc2ccc(NCCc3c[nH]c4ccccc34)cc2)ccn1 [Compound 165]
> 10	c1ccc2c(CCNc3ccc(Nc4ccnc(CNCCCN5CCOCC5)c4)cc3)c[nH]c2c1 [Compound 166]
3.98	c1ccc(COCc2cc(Nc3ccc(NCCc4c[nH]c5ccccc45)cc3)ccn2)cc1 [Compound 167]
2	c1ccc(CNCc2cc(Nc3ccc(NCCc4c[nH]c5ccccc45)cc3)ccn2)cc1 [Compound 168]
0.398	COCCOCc1cc(Nc2ccc(NCCc3c[nH]c4ccccc34)cc2)ccn1 [Compound 169]
3.16	c1ccc(CCCCNCc2cc(Nc3ccc(NCCc4c[nH]c5ccccc45)cc3)ccn2)cc1 [Compound 170]
> 10	c1ccc(CCCOCc2cc(Nc3ccc(NCCc4c[nH]c5ccccc45)cc3)ccn2)cc1 [Compound 171]
> 10	COC(=O)CCOCc1cc(Nc2ccc(NCCc3c[nH]c4ccccc34)cc2)ccn1 [Compound 172]
> 10	O=c1cc(Nc2ccc(NCCc3c[nH]c4ccccc34)cc2)cc[nH]1 [Compound 173]
